Measurements published in US10335427B2, “Tumor prevention and treatment drug and applications thereof” (priority 2016, dated 2019).

Legend:
tumor cells = conditions: cited from earlier work
[1] = test system: melanomas, SW480 colorectal cancer and MCF7 breast cancer; conditions: cited from earlier work
Hela cells = assay: Hela tumor mass growth in nude mice (tumor weight, inhibition rate); type: in vivo, Balb/c nude mice; conditions: i.v. twice every week, 10 times, 8-oxodGTP 500 μg/kg/time, 5-FU 15 mg/kg/time
Description: 5×10^6 Hela cells (200 μl) were inoculated subcutaneously into the armpit of nude mice. After growing to a certain size, the tumor mass was reinoculated subcutaneously into the armpit of 24 nude mice, which were then randomly grouped into the 5-FU positive control group, the blank carrier control group, and the 8-oxodGTP group, and on the second day after the second inoculation, these nude mice were dosed intravenously. The 5-FU group was injected at a dose of 15 mg/kg/time, the 8-oxodGTP group was injected at a dose of 500 μg/kg/time, and the carrier control group was injected at an equal volume of blank carrier reagents. The injections were performed twice every week, for a total of 10 times. After the injections, the tumor mass was taken and weighed, so as to calculate the inhibition rate (inhibition rate=(1-T experimental group/C control group)×100%).

SMILES | Effect of MTH1 inhibition on tumor cells (tumor cells) | Effect in nude mice transplantation experiments [1] | Tumor weight (Hela cells) | Inhibition rate (Hela cells; vs blank carrier group)
CNc1cc(-c2cccc(Cl)c2Cl)nc(N)n1 [TH287] | selectively kill tumor cells |  |  | 
Nc1nc(NC2CC2)cc(-c2cccc(Cl)c2Cl)n1 [TH588] | selectively kill tumor cells | therapeutic effects |  | 
O=c1[nH]cc(F)c(=O)[nH]1 [5-FU, 5-fluorouracil] |  |  | 988 ± 436.94 mg | 18%
